Laboratory results reported in patent publication US20220041681A1 (MEDIMMUNE LIMITED, priority 2016, published 2022).
Numbered stars: 1 amine (or outer) side, 2 acyl side, 3 side chain; on linkers, the order of the positions; unused ones are H or OH. Side chains are listed from the residue outwards. Peptide text beside a SMILES is read from it. * marks the point of attachment. γGlu = O=C(O)[C@H](CCC(=O)[*:2])N[*:1]; Palmitoyl = CCCCCCCCCCCCCCCC(=O)*; Ahx = NCCCCCC(=O)O; βAla = NCCC(=O)O

Assays:
[1] = test system: diet induced obesity (DIO) mouse model; test: Diet induced obesity (DIO) mouse model, study B; type: in vivo
Experimental: (§1) The body weight of the animals was monitored daily throughout the dosing period. At day 14, blood samples for the measurement of plasma glucose and insulin from conscious mice were obtained after a 4-hour fasting period. Mice were then anaesthetized using isoflourane and terminal blood was collected from the capillary bed behind the eye. The following parameters were measured: blood chemistry measurements of triglycerides, total cholesterol, non-esterified fatty acids (NEFA), beta-hydroxybutyrate and fibroblast growth factor 21 (FGF21) (Table 16 and Table 17 below).

[2] = test system: diet induced obesity (DIO) mouse model; test: Diet induced obesity (DIO) mouse model, study A; type: in vivo
Description: Female C57/Bl6JHsdOla (obtained from Harlan Laboratories. UK) were started on a high fat diet of D12492 (Research Diets, NJ, USA) and a chocolate confection, delicato ball (Delicata Bakverk, Sweden) at 9-11 weeks of age, and were maintained on the diet for 16 weeks prior to arrival to the animal facility, during a three week acclimation period and during drug treatment, caloric content of the two components of the diet is shown in Table 11. The mice were divided into 9 groups (n=5-6), and treatment was started at 29 weeks of age.
as §1, with “throughout die” for “throughout the”, “using isofluorane” for “using isoflourane”, “(FGF21) (Tables 14” for “(FGF21) (Table 16”, “and 15” for “and Table 17”

Human GlucR = target: T1, Human GlucR (Homo sapiens, UniProt P47871); test: cAMP activity assay (assay 1) in assay medium; type: cell-based; details: Table 4, additional peptides, read-out: hGlucR EC50
T1 construct: expressed in transfected cells
Experimental: (§2) All sample dilutions were made in duplicate.
(§3) A frozen cryo-vial of cells expressing the receptor of interest was thawed rapidly in a water-bath, transferred to pre-warmed assay media and spun at 240×g for 5 minutes. Cells were re-suspended in assay media at an optimized concentration (e.g. hGCGR cells at 1×10^5 cells/ml, hGLP-1R and hGIPR cells at 0.5×10^5 cells/ml).
(§4) To this, 5 μL cell suspension was added and the plates incubated at room temperature for 30 minutes.
(§5) cAMP levels were measured using a commercially available cAMP dynamic 2 HTRF kit (Cisbio, Cat #62AM4PEJ), following the two step protocol as per manufacturer's recommendations. In brief; anti-cAMP cryptate (donor fluorophore) and cAMP-d2 (acceptor fluorophore) were made up separately by diluting each 120 in conjugate & lysis buffer provided in the kit. 5 μL anti-cAMP cryptate was added to all wells of the assay plate, and 5 μL cAMP-d2 added to all wells except non-specific binding (NSB) wells, to which conjugate and lysis buffer was added.

Human GLP1R = Human GLP1R (Homo sapiens, UniProt P43220); test: cAMP activity assay (assay 1) in assay medium; type: cell-based; details: Table 4, additional peptides, read-out: hGLP1R EC50
Experimental: as §2, §3, §4, §5

[3] = 27 nmol/kg sc twice daily, day 14
[4] = 27 nmol/kg sc twice daily, day 14, 4-hour fasting

T1 sequence (P47871 26-477): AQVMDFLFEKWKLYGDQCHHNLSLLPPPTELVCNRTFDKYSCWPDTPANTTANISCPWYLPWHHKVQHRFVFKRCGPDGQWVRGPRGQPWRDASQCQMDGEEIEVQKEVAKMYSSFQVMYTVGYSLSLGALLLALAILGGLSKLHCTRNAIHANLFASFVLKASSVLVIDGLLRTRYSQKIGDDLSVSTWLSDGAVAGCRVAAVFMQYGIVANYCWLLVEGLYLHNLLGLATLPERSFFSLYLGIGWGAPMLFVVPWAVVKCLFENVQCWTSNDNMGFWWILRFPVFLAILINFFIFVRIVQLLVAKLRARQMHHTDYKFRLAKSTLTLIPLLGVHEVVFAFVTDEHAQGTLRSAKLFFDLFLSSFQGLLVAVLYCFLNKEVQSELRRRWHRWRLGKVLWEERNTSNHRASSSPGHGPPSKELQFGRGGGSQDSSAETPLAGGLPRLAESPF
Chain of Human GLP1R (P43220 24-463): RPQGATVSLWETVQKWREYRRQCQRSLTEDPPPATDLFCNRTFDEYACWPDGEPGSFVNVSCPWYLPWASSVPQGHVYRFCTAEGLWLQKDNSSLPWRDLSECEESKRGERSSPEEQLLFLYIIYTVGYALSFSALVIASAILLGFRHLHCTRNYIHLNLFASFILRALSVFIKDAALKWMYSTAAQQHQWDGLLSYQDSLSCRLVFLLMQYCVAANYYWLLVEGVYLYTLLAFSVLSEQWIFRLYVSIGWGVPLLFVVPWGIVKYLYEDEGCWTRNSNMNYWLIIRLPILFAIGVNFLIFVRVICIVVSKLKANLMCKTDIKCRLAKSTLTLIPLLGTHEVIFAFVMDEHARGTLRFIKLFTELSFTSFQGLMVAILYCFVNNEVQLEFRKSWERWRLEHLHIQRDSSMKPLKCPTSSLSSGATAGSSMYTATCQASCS

Question: Which results are given for CCCCCCCCCCCCCCCC(=O)N[C@@H](CCC(=O)NCCCC[C@H](NC(=O)[C@H](C)NC(=O)[C@H](C)NC(=O)[C@H](CCC(N)=O)NC(=O)CNC(=O)[C@H](CCC(=O)O)NC(=O)[C@H](CC(C)C)NC(=O)[C@H](Cc1ccc(O)cc1)NC(=O)[C@H](CO)NC(=O)[C@H](CO)NC(=O)[C@@H](NC(=O)[C@H](CC(=O)O)NC(=O)[C@H](CO)NC(=O)[C@@H](NC(=O)[C@H](Cc1ccccc1)NC(=O)[C@@H](NC(=O)CNC(=O)[C@H](CCC(=O)O)NC(=O)[C@H](C)NC(=O)[C@@H](N)Cc1cnc[nH]1)[C@@H](C)O)[C@@H](C)O)C(C)C)C(=O)N[C@@H](CCC(=O)O)C(=O)N[C@@H](Cc1ccccc1)C(=O)N[C@H](C(=O)N[C@@H](C)C(=O)N[C@@H](Cc1c[nH]c2ccccc12)C(=O)N[C@@H](CC(C)C)C(=O)N[C@H](C(=O)N[C@@H](CCCNC(=N)N)C(=O)NCC(=O)N[C@@H](CCCNC(=N)N)C(=O)NCC(=O)O)C(C)C)[C@@H](C)CC)C(=O)O [Liraglutide, reference compound]?
Answer: BW day 14 (% change of vehicle mean) ([1]; 27 nmol/kg sc twice daily for 14 days): −14%; FGF 21 [1, 3]: 2990 pg/mL; HOMA [1, 3]: 3.51; Hepatic TG [1, 3]: 18.4 g TG/100 g tissue; Plasma Cholesterol [1, 3]: 3.26 mM; Plasma NEFA [1, 3]: 0.29 mM; Plasma TG [1, 3]: 0.28 mM; Glucose [1, 4]: 7.7 mM; Insulin [1, 4]: 0.31 nM; BW day 14 (% change of vehicle mean) ([2]; 27 nmol/kg sc twice daily 14 days): −13.3%; BeHy ([2]; 27 nmol/kg, day 14): 345 u mol/l; FGF 21 ([2]; 27 nmol/kg, day 14): 2481 pg/mL; HOMA ([2]; 27 nmol/kg, day 14): 2.8; Hepatic TG ([2]; 27 nmol/kg, day 14): 13.1 g TB/100 g tissue; Insulin ([2]; 27 nmol/kg, day 14): 0.3 nM; Plasma Cholesterol ([2]; 27 nmol/kg, day 14): 3.75 mM; Plasma NEFA ([2]; 27 nmol/kg, day 14): 0.24 Mm; Plasma TG ([2]; 27 nmol/kg, day 14): 0.24 mM; Glucose ([2]; 27 nmol/kg, day 14, 4-hour fasting): 8.0 mM

Question: Which EC50 (Human GlucR) does the source give for CCCCCCCCCCCCCCCC(=O)N[C@@H](CCC(=O)NCCCC[C@H](NC(=O)[C@H](CO)NC(=O)[C@H](CC(=O)O)NC(=O)[C@H](CC(C)C)NC(=O)[C@H](Cc1ccc(O)cc1)NC(=O)[C@H](CCCCN)NC(=O)[C@H](CO)NC(=O)[C@H](Cc1ccc(O)cc1)NC(=O)[C@H](CC(=O)O)NC(=O)[C@H](CO)NC(=O)[C@@H](NC(=O)[C@H](Cc1ccccc1)NC(=O)[C@@H](NC(=O)CNC(=O)[C@H](CCC(=O)O)NC(=O)[C@H](CO)NC(=O)[C@@H](N)Cc1c[nH]cn1)[C@@H](C)O)[C@@H](C)O)C(=O)N[C@@H](CCCNC(=N)N)C(=O)N[C@@H](C)C(=O)N[C@@H](CCC(=O)O)C(=O)N[C@@H](CC(=O)O)C(=O)N[C@@H](Cc1ccccc1)C(=O)N[C@H](C(=O)N[C@@H](CCC(=O)O)C(=O)N[C@@H](Cc1c[nH]c2ccccc12)C(=O)N[C@@H](CC(C)C)C(=O)N[C@H](C(=O)N[C@@H](C)C(=O)NCC(=O)NCC(N)=O)C(C)C)C(C)C)C(=O)O [g639] (H-HSEGTFTSDYSKYLDSK([γGlu-Palmitoyl])RAEDFVEWLVAGG-NH2; N-terminus assumed) here?
Answer: 8210 nM

Question: For CCCCCCCCCCCCCCCC(=O)NCCCCCC(=O)NCCCC[C@H](NC(=O)[C@H](CO)NC(=O)[C@H](CC(=O)O)NC(=O)[C@H](CC(C)C)NC(=O)[C@H](Cc1ccc(O)cc1)NC(=O)[C@H](CCC(=O)O)NC(=O)[C@H](CO)NC(=O)[C@H](Cc1ccc(O)cc1)NC(=O)[C@H](CC(=O)O)NC(=O)[C@H](CO)NC(=O)[C@@H](NC(=O)[C@H](Cc1ccccc1)NC(=O)[C@@H](NC(=O)CNC(=O)[C@H](CCC(N)=O)NC(=O)CNC(=O)[C@@H](N)Cc1c[nH]cn1)[C@@H](C)O)[C@@H](C)O)C(=O)N[C@@H](CCCNC(=N)N)C(=O)N[C@@H](C)C(=O)N[C@@H](C)C(=O)N[C@@H](CC(=O)O)C(=O)N[C@@H](Cc1ccccc1)C(=O)N[C@H](C(=O)N[C@@H](C)C(=O)N[C@@H](Cc1c[nH]c2ccccc12)C(=O)N[C@@H](CC(C)C)C(=O)N[C@@H](CCC(=O)O)C(=O)N[C@@H](CCCNC(=N)N)C(=O)NCC(=O)NCC(N)=O)C(C)C [g683], which EC50 (Human GlucR) is on record?
Answer: 0.372 nM

Question: Which EC50 (Human GLP1R) does the source give for CCCCCCCCCCCCCCCC(=O)NCCCCCC(=O)NCCCC[C@H](NC(=O)[C@H](CO)NC(=O)[C@H](CC(=O)O)NC(=O)[C@H](CC(C)C)NC(=O)[C@H](Cc1ccc(O)cc1)NC(=O)[C@H](CCC(=O)O)NC(=O)[C@H](CO)NC(=O)[C@H](Cc1ccc(O)cc1)NC(=O)[C@H](CC(=O)O)NC(=O)[C@H](CO)NC(=O)[C@@H](NC(=O)[C@H](Cc1ccccc1)NC(=O)[C@@H](NC(=O)CNC(=O)[C@H](CCC(N)=O)NC(=O)CNC(=O)[C@@H](N)Cc1c[nH]cn1)[C@@H](C)O)[C@@H](C)O)C(=O)N[C@@H](CCCNC(=N)N)C(=O)N[C@@H](C)C(=O)N[C@@H](CCCNC(=N)N)C(=O)N[C@@H](CC(=O)O)C(=O)N[C@@H](Cc1ccccc1)C(=O)N[C@H](C(=O)N[C@@H](C)C(=O)N[C@@H](Cc1c[nH]c2ccccc12)C(=O)N[C@@H](CC(C)C)C(=O)N[C@@H](CCC(=O)O)C(=O)N[C@@H](CCCNC(=N)N)C(=O)NCC(=O)NCC(N)=O)C(C)C [g684] (H-HGQGTFTSDYSEYLDSK([Ahx-Palmitoyl])RARDFVAWLERGG-NH2; N-terminus assumed) here?
Answer: 0.0161 nM

Question: For CCCCCCCCCCCCCCCC(=O)NCCC(=O)NCCCC[C@H](NC(=O)[C@H](CO)NC(=O)[C@H](CC(=O)O)NC(=O)[C@H](CC(C)C)NC(=O)[C@H](Cc1ccc(O)cc1)NC(=O)[C@H](CCC(=O)O)NC(=O)[C@H](CO)NC(=O)[C@H](Cc1ccc(O)cc1)NC(=O)[C@H](CC(=O)O)NC(=O)[C@H](CO)NC(=O)[C@@H](NC(=O)[C@H](Cc1ccccc1)NC(=O)[C@@H](NC(=O)CNC(=O)[C@H](CCC(=O)O)NC(=O)[C@H](CO)NC(=O)[C@@H](N)Cc1c[nH]cn1)[C@@H](C)O)[C@@H](C)O)C(=O)N[C@@H](CCCNC(=N)N)C(=O)N[C@@H](C)C(=O)N[C@@H](CCCNC(=N)N)C(=O)N[C@@H](CC(=O)O)C(=O)N[C@@H](Cc1ccccc1)C(=O)N[C@H](C(=O)N[C@@H](C)C(=O)N[C@@H](Cc1c[nH]c2ccccc12)C(=O)N[C@@H](CC(C)C)C(=O)N[C@@H](CCC(=O)O)C(=O)N[C@@H](C)C(=O)NCC(=O)NCC(N)=O)C(C)C [g734] (H-HSEGTFTSDYSEYLDSK([βAla-Palmitoyl])RARDFVAWLEAGG-NH2; N-terminus assumed), which EC50 (Human GlucR) is on record?
Answer: 8280 nM

Question: Which EC50 (Human GLP1R) does the source give for CCCCCCCCCCCCCCCC(=O)N[C@@H](CCC(=O)NCCCC[C@H](NC(=O)[C@H](CO)NC(=O)[C@H](CC(=O)O)NC(=O)[C@H](CC(C)C)NC(=O)[C@H](Cc1ccc(O)cc1)NC(=O)[C@H](CCC(=O)O)NC(=O)[C@H](CO)NC(=O)[C@H](Cc1ccc(O)cc1)NC(=O)[C@H](CC(=O)O)NC(=O)[C@H](CO)NC(=O)[C@@H](NC(=O)[C@H](Cc1ccccc1)NC(=O)[C@@H](NC(=O)CNC(=O)[C@H](CCC(N)=O)NC(=O)CNC(=O)[C@@H](N)Cc1c[nH]cn1)[C@@H](C)O)[C@@H](C)O)C(=O)N[C@@H](CCCNC(=N)N)C(=O)N[C@@H](C)C(=O)N[C@@H](CCCNC(=N)N)C(=O)N[C@@H](CC(=O)O)C(=O)N[C@@H](Cc1ccccc1)C(=O)N[C@H](C(=O)N[C@@H](C)C(=O)N[C@@H](Cc1c[nH]c2ccccc12)C(=O)N[C@@H](CC(C)C)C(=O)N[C@H](C(=O)N[C@@H](C)C(=O)NCC(=O)NCC(N)=O)C(C)C)C(C)C)C(=O)O [g735] (H-HGQGTFTSDYSEYLDSK([γGlu-Palmitoyl])RARDFVAWLVAGG-NH2; N-terminus assumed) here?
Answer: 0.161 nM
